How the values were obtained:
Experiment in all cases: relative viability (nuclei count vs DMSO), 5 days (fraction); higher = more cells survive
NCI-H441 = tested on: NCI-H441
Method in brief: (§1)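 Five library-drug doses in √10 steps were combined with a fixed anchor-drug dose, or a single drug was given alone, by pin tool to lung cancer cell lines in 1536-well plates the day after seeding. Nuclei were stained and counted after 5 days. Relative viability is the nuclei count in treated wells over that in vehicle wells, taken as the median of duplicate plates.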

NCI-H2085 = tested on: NCI-H2085
Method in brief: as §1

SW 900 = tested on: SW 900
Method in brief: as §1

H3255 = tested on: H3255
Method in brief: as §1

NCI-H2170 = tested on: NCI-H2170
Method in brief: as §1

LOU-NH91 = tested on: LOU-NH91
Method in brief: as §1

PC-14 = tested on: PC-14
Method in brief: as §1

NCI-H1993 = tested on: NCI-H1993
Method in brief: as §1

201T = tested on: 201T
Method in brief: as §1

NCI-H1793 = tested on: NCI-H1793
Method in brief: as §1

COR-L23 = tested on: COR-L23
Method in brief: as §1

NCI-H3122 = tested on: NCI-H3122
Method in brief: as §1

HCC-44 = tested on: HCC-44
Method in brief: as §1

NCI-H2405 = tested on: NCI-H2405
Method in brief: as §1

NCI-H647 = tested on: NCI-H647
Method in brief: as §1

NCI-H520 = tested on: NCI-H520
Method in brief: as §1

NCI-H1734 = tested on: NCI-H1734
Method in brief: as §1

EPLC-272H = tested on: EPLC-272H
Method in brief: as §1

NCI-H2347 = tested on: NCI-H2347
Method in brief: as §1

NCI-H1650 = tested on: NCI-H1650
Method in brief: as §1

NCI-H2023 = tested on: NCI-H2023
Method in brief: as §1

RERF-LC-KJ = tested on: RERF-LC-KJ
Method in brief: as §1

CC1(C)CCC(c2ccc(Cl)cc2)=C(CN2CCN(c3ccc(C(=O)NS(=O)(=O)c4ccc(N[C@H](CCN5CCOCC5)CSc5ccccc5)c(S(=O)(=O)C(F)(F)F)c4)cc3)CC2)C1 [Navitoclax] + Cc1cc(Nc2cc(N3CCN(C)CC3)nc(Sc3ccc(NC(=O)C4CC4)cc3)n2)n[nH]1 [Tozasertib] (partner 0.1 µM)
relative viability (NCI-H441; first compound 0.005 µM): 0.648
relative viability (NCI-H441; first compound 0.01581 µM): 0.846
relative viability (NCI-H441; first compound 0.05 µM): 0.719
relative viability (NCI-H441; first compound 0.1581 µM): 0.524
relative viability (NCI-H441; first compound 0.5 µM): 0.676
relative viability (NCI-H2085; first compound 0.005 µM): 0.804
relative viability (NCI-H2085; first compound 0.01581 µM): 0.734
relative viability (NCI-H2085; first compound 0.05 µM): 0.811
relative viability (NCI-H2085; first compound 0.1581 µM): 0.772
relative viability (NCI-H2085; first compound 0.5 µM): 0.752
relative viability (SW 900; first compound 0.005 µM): 0.456
relative viability (SW 900; first compound 0.01581 µM): 0.46
relative viability (SW 900; first compound 0.05 µM): 0.385
relative viability (SW 900; first compound 0.1581 µM): 0.59
relative viability (SW 900; first compound 0.5 µM): 0.501
relative viability (H3255; first compound 0.005 µM): 0.532
relative viability (H3255; first compound 0.01581 µM): 0.705
relative viability (H3255; first compound 0.05 µM): 0.673
relative viability (H3255; first compound 0.1581 µM): 0.585
relative viability (H3255; first compound 0.5 µM): 0.609
relative viability (NCI-H2170; first compound 0.005 µM): 0.716
relative viability (NCI-H2170; first compound 0.01581 µM): 0.71
relative viability (NCI-H2170; first compound 0.05 µM): 0.689
relative viability (NCI-H2170; first compound 0.1581 µM): 0.684
relative viability (NCI-H2170; first compound 0.5 µM): 0.665
relative viability (LOU-NH91; first compound 0.005 µM): 0.667
relative viability (LOU-NH91; first compound 0.01581 µM): 0.627
relative viability (LOU-NH91; first compound 0.05 µM): 0.714
relative viability (LOU-NH91; first compound 0.1581 µM): 0.655
relative viability (LOU-NH91; first compound 0.5 µM): 0.563
relative viability (PC-14; first compound 0.005 µM): 0.623
relative viability (PC-14; first compound 0.01581 µM): 0.633
relative viability (PC-14; first compound 0.05 µM): 0.7
relative viability (PC-14; first compound 0.1581 µM): 0.553
relative viability (PC-14; first compound 0.5 µM): 0.559
relative viability (NCI-H1993; first compound 0.005 µM): 0.596
relative viability (NCI-H1993; first compound 0.01581 µM): 0.666
relative viability (NCI-H1993; first compound 0.05 µM): 0.597
relative viability (NCI-H1993; first compound 0.1581 µM): 0.522
relative viability (NCI-H1993; first compound 0.5 µM): 0.595
relative viability (201T; first compound 0.005 µM): 0.975
relative viability (201T; first compound 0.01581 µM): 1.04
relative viability (201T; first compound 0.05 µM): 0.778
relative viability (201T; first compound 0.1581 µM): 0.931
relative viability (201T; first compound 0.5 µM): 1.01
relative viability (NCI-H1793; first compound 0.005 µM): 0.338
relative viability (NCI-H1793; first compound 0.01581 µM): 0.394
relative viability (NCI-H1793; first compound 0.1581 µM): 0.278
relative viability (NCI-H1793; first compound 0.5 µM): 0.275
relative viability (COR-L23; first compound 0.005 µM): 0.236
relative viability (COR-L23; first compound 0.01581 µM): 0.197
relative viability (COR-L23; first compound 0.05 µM): 0.172
relative viability (COR-L23; first compound 0.1581 µM): 0.198
relative viability (COR-L23; first compound 0.5 µM): 0.228
relative viability (NCI-H3122; first compound 0.005 µM): 0.353
relative viability (NCI-H3122; first compound 0.01581 µM): 0.286
relative viability (NCI-H3122; first compound 0.05 µM): 0.481
relative viability (NCI-H3122; first compound 0.1581 µM): 0.306
relative viability (NCI-H3122; first compound 0.5 µM): 0.373
relative viability (HCC-44; first compound 0.05 µM): 1.1
relative viability (HCC-44; first compound 0.5 µM): 0.613
relative viability (NCI-H2405; first compound 0.005 µM): 0.761
relative viability (NCI-H2405; first compound 0.01581 µM): 0.787
relative viability (NCI-H2405; first compound 0.05 µM): 0.735
relative viability (NCI-H2405; first compound 0.1581 µM): 0.731
relative viability (NCI-H2405; first compound 0.5 µM): 0.681
relative viability (NCI-H647; first compound 0.005 µM): 0.301
relative viability (NCI-H647; first compound 0.01581 µM): 0.268
relative viability (NCI-H647; first compound 0.05 µM): 0.292
relative viability (NCI-H647; first compound 0.1581 µM): 0.27
relative viability (NCI-H647; first compound 0.5 µM): 0.251
relative viability (NCI-H520; first compound 0.005 µM): 0.511
relative viability (NCI-H520; first compound 0.01581 µM): 0.408
relative viability (NCI-H520; first compound 0.05 µM): 0.419
relative viability (NCI-H520; first compound 0.1581 µM): 0.376
relative viability (NCI-H520; first compound 0.5 µM): 0.392
relative viability (NCI-H1734; first compound 0.005 µM): 0.253
relative viability (NCI-H1734; first compound 0.01581 µM): 0.259
relative viability (NCI-H1734; first compound 0.1581 µM): 0.201
relative viability (NCI-H1734; first compound 0.5 µM): 0.194
relative viability (EPLC-272H; first compound 0.005 µM): 0.28
relative viability (EPLC-272H; first compound 0.05 µM): 0.313
relative viability (EPLC-272H; first compound 0.1581 µM): 0.204
relative viability (EPLC-272H; first compound 0.5 µM): 0.242
relative viability (NCI-H2347; first compound 0.005 µM): 0.505
relative viability (NCI-H2347; first compound 0.01581 µM): 0.516
relative viability (NCI-H2347; first compound 0.1581 µM): 0.614
relative viability (NCI-H2347; first compound 0.5 µM): 0.668
relative viability (NCI-H1650; first compound 0.005 µM): 0.363
relative viability (NCI-H1650; first compound 0.01581 µM): 0.419
relative viability (NCI-H1650; first compound 0.05 µM): 0.415
relative viability (NCI-H1650; first compound 0.1581 µM): 0.34
relative viability (NCI-H1650; first compound 0.5 µM): 0.356
relative viability (NCI-H2023; first compound 0.005 µM): 0.384
relative viability (NCI-H2023; first compound 0.01581 µM): 0.32
relative viability (NCI-H2023; first compound 0.05 µM): 0.357
relative viability (NCI-H2023; first compound 0.1581 µM): 0.36
relative viability (NCI-H2023; first compound 0.5 µM): 0.244
relative viability (RERF-LC-KJ; first compound 0.005 µM): 0.507
relative viability (RERF-LC-KJ; first compound 0.01581 µM): 0.369
relative viability (RERF-LC-KJ; first compound 0.05 µM): 0.536
relative viability (RERF-LC-KJ; first compound 0.1581 µM): 0.526
relative viability (RERF-LC-KJ; first compound 0.5 µM): 0.464
